Data on 66 compounds can be found in paper PMC5733478, “A Non-imaging High Throughput Approach to Chemical Library Screening at the Unmodified Adenosine-A3 Receptor in Living Cells” (Frontiers in Pharmacology, 2017).

Where a name gives a salt, the structure may show the parent alone.

The target of one assay is T1, human A3AR (Homo sapiens, UniProt P0DMS8).
T1 construct: expressed in transfected cells
T1 sequence (P0DMS8 1-318): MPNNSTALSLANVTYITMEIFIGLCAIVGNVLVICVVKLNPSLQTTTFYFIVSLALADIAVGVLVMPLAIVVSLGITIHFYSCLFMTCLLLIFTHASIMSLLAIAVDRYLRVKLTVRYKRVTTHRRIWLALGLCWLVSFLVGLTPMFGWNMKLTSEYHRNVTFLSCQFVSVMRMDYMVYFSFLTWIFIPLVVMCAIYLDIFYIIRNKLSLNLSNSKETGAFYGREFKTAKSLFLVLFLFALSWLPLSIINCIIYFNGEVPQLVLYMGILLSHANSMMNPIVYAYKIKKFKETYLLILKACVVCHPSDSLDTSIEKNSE
In words: LOPAC library primary screen: single concentration (10 μM) inhibition of 25 nM CA200645 binding, PHERAstar FS.
Details: not given
In the case of `OC[C@H]1NC[C@H](O)[C@@H](O)[C@@H]1O` [1-Deoxynojirimycin hydrochloride], the “% 25 nM CA200645 binding” value came out at 98.5 ± 11.6%.
As for `Cl.Cl.Cn1cnc(CCN)c1` [1-Methylhistamine dihydrochloride], the “% 25 nM CA200645 binding” value was 99.7 ± 10.5%.
For the compound `Cn1ccnc1` [1-Methylimidazole], the “% 25 nM CA200645 binding” value was determined as 115.7 ± 16.4%.
Still for that read-out and setting: to `S=C(Nc1ccccc1)Nc1nccs1` [1-Phenyl-3-(2-thiazolyl)-2-thiourea] belongs 94.0 ± 11.6%.
On the same count and under the same terms, then `N=C(N)NC(=N)Nc1ccccc1` [1-Phenylbiguanide], with 96.2 ± 2.3%.
On the same count and under the same terms, then `FC(F)(F)c1ccccc1-n1ccnc1` [1-[2-(Trifluoromethyl)phenyl]imidazole], with 101.2 ± 9.4%; and `Cc1cn([C@H]2C=C[C@@H](CO)O2)c(=O)[nH]c1=O` [2',3'-didehydro-3'-deoxythymidine], with 82.1 ± 11.9%; and `c1ccc(-c2ccccn2)nc1` [2,2'-Bipyridyl], with 105.2 ± 7.5%.
Regarding `CC(=O)C(C)=NO` [2,3-Butanedione monoxime], the “% 25 nM CA200645 binding” value amounted to 109.9 ± 13.3%.
Consider `CC(=O)C(C)=O` [2,3-Butanedione], for which the “% 25 nM CA200645 binding” value is 101.3 ± 15.0%.
Regarding `COC1=C(OC)C(=O)c2ccccc2C1=O` [2,3-Dimethoxy-1,4-naphthoquinone], the “% 25 nM CA200645 binding” value is 99.3 ± 8.8%.
Take `Nc1nc(Cl)nc2c1ncn2[C@@H]1O[C@H](CO)[C@@H](O)[C@H]1O` [2-CADO, reference compound]: the “% Total CA200645 binding” value amounted to 51.0 ± 6.7%.
Regarding `O=C[C@H](Cl)[C@@H](O)[C@H](O)[C@H](O)CO` [2-Chloro-2-deoxy-D-glucose], the “% 25 nM CA200645 binding” value was 89.9 ± 5.0%.
For `Nc1nc(Cl)nc2c1ncn2[C@@H]1O[C@H](CO)[C@@H](O)[C@H]1O` [2-Chloroadenosine], the “% 25 nM CA200645 binding” value stood at 51.0 ± 6.7%.
Turning to `NCC(O)(CS(=O)(=O)O)c1ccc(Cl)cc1` (stereo not drawn) [2-Hydroxysaclofen], the “% 25 nM CA200645 binding” value is given as 92.7 ± 0.2%.
Same read-out and setting: then `Cc1[nH]c2ccc(O)cc2c1CCN.O=C(O)/C=C\C(=O)O` [2-Methyl-5-hydroxytryptamine maleate], with 104.7 ± 14.7%.
The same measure, in the same setting: to `Cc1cn(C2CC(N=[N+]=[N-])C(CO)O2)c(=O)[nH]c1=O` (stereo not drawn) [3'-Azido-3'-deoxythymidine] belongs 82.3 ± 18.1%; to `O=c1oc(Cl)c(Cl)c2ccccc12` [3,4-Dichloroisocoumarin], 95.8 ± 9.3%; to `O=C(O)Cc1ccc(O)c(O)c1` [3,4-Dihydroxyphenylacetic acid], 97.0 ± 9.9%.
Take `O=[N+]([O-])c1cc(O)c(O)c([N+](=O)[O-])c1` [3,5-Dinitrocatechol]: the “% 25 nM CA200645 binding” value is 100.0 ± 11.8%.
On the same count and under the same terms, to `C#CCn1c(=O)c2c(ncn2C)n(C)c1=O` [3,7-Dimethyl-1-propargylxanthine] belongs 94.8 ± 1.8%; to `NCCCS(=O)(=O)O.[Na]` [3-Amino-1-propanesulfonic acid sodium], 96.5 ± 4.6%.
In the case of `N#CCCN.N#CCCN.O=C(O)/C=C/C(=O)O` [3-Aminopropionitrile fumarate], the “% 25 nM CA200645 binding” value is recorded as 91.9 ± 6.3%.
For `NCCCP(=O)(O)O` [3-Aminopropylphosphonic acid], the “% 25 nM CA200645 binding” value stood at 90.0 ± 2.1%.
Same read-out and setting: to `O=[N+]([O-])c1cccc2c(Br)n[nH]c12` [3-Bromo-7-nitroindazole] belongs 81.2 ± 6.7%; to `N[C@@H](Cc1ccc(O)c(I)c1)C(=O)O` [3-Iodo-L-tyrosine], 96.8 ± 8.8%.
Regarding `CC(C)Cn1c(=O)n(C)c(=O)c2[nH]cnc21` [3-Isobutyl-1-methylxanthine], the “% 25 nM CA200645 binding” value is listed as 98.0 ± 7.1%.
The same measure, in the same setting: then `Nc1c[n+](N2CCOCC2)no1.[Cl-]` [3-Morpholinosydnonimine hydrochloride], with 114.0 ± 15.4%; and `O=C(O)CC[N+](=O)[O-]` [3-Nitropropionic acid], with 111.3 ± 13.2%.
`Nc1nccc2c1ncn2[C@@H]1O[C@H](CO)[C@@H](O)[C@H]1O` [3-deazaadenosine]: the “% 25 nM CA200645 binding” value is listed as 93.8 ± 11.9%.
In the case of `CCCn1c(=O)[nH]c(=O)c2nc[nH]c21` [3-n-Propylxanthine], the “% 25 nM CA200645 binding” value is given as 101.0 ± 10.1%.
Same read-out and setting: to `Nc1ccc2c3c(cccc13)C(=O)NC2=O` [4-Amino-1,8-naphthalimide] belongs 95.4 ± 12.1%.
On the same count and under the same terms, to `Nc1ccncc1` [4-Aminopyridine] belongs 93.6 ± 7.2%.
Still for that read-out and setting: then `C[N+]1(C)CCC(OC(=O)C(c2ccccc2)c2ccccc2)CC1.[I-]` [4-DAMP methiodide], with 84.9 ± 19.8%.
For `COc1cc(CC(=O)O)ccc1O` [4-Hydroxy-3-methoxyphenylacetic acid], the “% 25 nM CA200645 binding” value worked out at 94.9 ± 9.6%.
Still for that read-out and setting: then `NNC(=O)c1ccc(O)cc1` [4-Hydroxybenzhydrazide], with 105.3 ± 8.4%; and `Cl.NCCc1ccc(O)cc1` [4-Hydroxyphenethylamine hydrochloride], with 98.7 ± 19.0%.
The same measure, in the same setting: then `Cl.OCc1c[nH]cn1` [4-Imidazolemethanol hydrochloride], with 101.5 ± 8.2%; and `Cc1cn[nH]c1.Cl` [4-Methylpyrazole hydrochloride], with 102.3 ± 3.8%.
The same measure, in the same setting: then `CC1(C)CCC=[N+]1[O-]` [5,5-Dimethyl-1-pyrroline-N-oxide], with 106.0 ± 5.3%.
Regarding `O=C1NC(=O)C(c2ccccc2)(c2ccccc2)N1` [5,5-Diphenylhydantoin], the “% 25 nM CA200645 binding” value was determined as 95.9 ± 12.2%.
The same measure, in the same setting: then `O=C(O)c1cc(=O)c2c(Cl)cc(Cl)cc2[nH]1` [5,7-Dichlorokynurenic acid], with 100.9 ± 8.8%.
`CN(C)c1nc(N)c(C(=O)NC(=N)N)nc1Cl` [5-(N,N-Dimethyl)amiloride hydrochloride]: the “% 25 nM CA200645 binding” value turned out to be 95.5 ± 2.7%.
Consider `N=C(N)NC(=O)c1nc(Cl)c(N2CCCCCC2)nc1N` [5-(N,N-hexamethylene)amiloride], for which the “% 25 nM CA200645 binding” value is given as 87.5 ± 4.4%.
Still for that read-out and setting: to `CCN(c1nc(N)c(C(=O)NC(=N)N)nc1Cl)C(C)C` [5-(N-Ethyl-N-isopropyl)amiloride] belongs 94.1 ± 7.3%; to `Cl.NCCCCC(=O)O` [5-Aminovaleric acid hydrochloride], 97.9 ± 5.1%.
On the same count and under the same terms, to `O=c1[nH]c(=O)n([C@H]2C[C@H](O)[C@@H](CO)O2)cc1Br` [5-Bromo-2'-deoxyuridine] belongs 101.6 ± 8.3%.
Same read-out and setting: to `NCCc1c[nH]c2ccc(C(N)=O)cc12.O=C(O)/C=C\C(=O)O` [5-Carboxamidotryptamine maleate] belongs 85.7 ± 14.5%.
`O=C(O)c1cc2cc(F)ccc2[nH]1` [5-Fluoroindole-2-carboxylic acid]: the “% 25 nM CA200645 binding” value was 92.5 ± 8.9%.
For `O=c1[nH]cc(F)c(=O)[nH]1` [5-Fluorouracil], the “% 25 nM CA200645 binding” value was 98.8 ± 8.7%.
Same read-out and setting: to `N[C@@H](Cc1c[nH]c2ccc(O)cc12)C(=O)O` [5-Hydroxy-L-tryptophan] belongs 97.7 ± 1.5%.
On the same count and under the same terms, to `O=C(O)Cc1c[nH]c2ccc(O)cc12` [5-Hydroxyindolacetic acid] belongs 102.3 ± 8.2%.
Same read-out and setting: to `Nc1ncn([C@@H]2O[C@H](CO)[C@@H](O)[C@H]2O)c(=O)n1` [5-azacytidine] belongs 92.0 ± 10.7%; to `C[C@H]1O[C@@H](n2cc(F)c(=O)[nH]c2=O)[C@H](O)[C@@H]1O` [5-fluoro-5'-deoxyuridine], 95.4 ± 4.3%; to `CC(C)c1cccc(C(C)C)c1N1C(=O)c2ccc(O)cc2C1=O` [5HPP-33], 91.1 ± 9.2%.
`CC(=O)[C@H]1CC[C@H]2[C@@H]3CC[C@H]4C[C@H](O)CC[C@]4(C)[C@H]3CC[C@]12C` [5alpha-Pregnan-3alpha-ol-20-one]: the “% 25 nM CA200645 binding” value stood at 85.2 ± 19.4%.
Same read-out and setting: then `O=c1[nH]c2ccccc2c2ccccc12` [6(5H)-Phenanthridinone], with 41.6 ± 14.1%; and `Br.NC1CCc2cc(O)c(O)cc2C1` (stereo not drawn) [6,7-ADTN hydrobromide], with 100.4 ± 8.1%.
Still for that read-out and setting: to `NCCCCCC(=O)O` [6-Aminohexanoic acid] belongs 109.0 ± 9.6%; to `COc1cc2c(CCNC(C)=O)c[nH]c2cc1Cl` [6-Chloromelatonin], 92.8 ± 24.3%.
Same read-out and setting: to `Cl.NCC(O)c1cc(O)c(O)cc1F` (stereo not drawn) [6-Fluoronorepinephrine hydrochloride] belongs 77.6 ± 28.4%; to `COc1cc2c(CCNC(C)=O)c[nH]c2cc1O` [6-Hydroxymelatonin], 94.1 ± 9.8%.
Take `O=Nc1ccc2oc(=O)ccc2c1` [6-Nitroso-1,2-benzopyrone]: the “% 25 nM CA200645 binding” value is listed as 107.9 ± 12.7%.

Staying with this assay, now noted: % of control wells (1% DMSO and 25 nM CA200645); compounds at 10 µM; whole live cells expressing A3AR; mean ± SD, three experiments in duplicate.
Consider `CN1[C@@H]2CC[C@H]1C[C@@H](OC(=O)c1cc(Cl)cc(Cl)c1)C2` [3-Tropanyl-3,5-dichlorobenzoate], for which the “% 25 nM CA200645 binding” value is reported as 96.9 ± 4.1%.

The same assay, now with this note: % of control wells (1% DMSO and 25 nM CA200645); compounds at 10 µM; whole live cells expressing the A3AR; mean ± SD, three experiments in duplicate.
For the compound `N=C(N)c1ccc(N)cc1` [4-Aminobenzamidine dihydrochloride], the “% 25 nM CA200645 binding” value was found to be 97.4 ± 8.5%.

The assay is the same for the next values; noted with them: compounds tested at 10 µM; % of control wells (1% DMSO and 25 nM CA200645); […]; mean ± SD, three experiments in duplicate.
For `NC(=O)c1cccc(N)c1` [3-aminobenzamide], the “% 25 nM CA200645 binding” value is recorded as 91.6 ± 2.5%.
